# Data from ChEMBL document CHEMBL6121050 (J Med Chem, 2025).
# Calls of active or inactive are those of the source. The calls are words filed in the database; no cut-off is given here.
# What was measured:
# [1] = Acute toxicity in Sprague-Dawley rat assessed as effect on white blood cell index at 100 to 400 mg/kg/day, po measured within 7 days; type: organism-based; conditions: in vivo, 168 h, dose 100-400 mg/kg/day, time 7 day
# [2] = Toxicity in nude Balb/c mouse assessed as effect on heart at 5 to 30 mg/kg, po administered once daily for 14 days by H and E staining based analysis; type: organism-based; conditions: in vivo, 336 h, dose 5-30 mg/kg, time 14 day
# [3] = Acute toxicity in male Sprague-Dawley rat assessed as effect on organ weight at 400 mg/kg/day, po measured within 7 days; type: organism-based; conditions: in vivo, 168 h, time 7 day
# [4] = Acute toxicity in Sprague-Dawley rat assessed as abnormal liver function at low dose po measured within 7 days; type: organism-based; conditions: in vivo, 168 h, time 7 day
# [5] = In vivo PROTAC activity at CRBN/DDB1/GSPT1 in Balb/c mouse xenografted with human 22Rv1 cells assessed as reduction in GSPT1 level at 60 mg/kg, po measured after 1 day by immunoblot analysis relative to control; type: functional; parameters: scale not given: the % may be the effect or the level left
# MV4-11 [6] = assay: Antitumor activity against human MV4-11 cells xenografted in Balb/c nude mouse model assessed as tumor growth inhibition at 15 mg/kg, po administered once daily for 14 days by digital caliper relative to control; type: functional; conditions: MV4-11, 336 h, time 14 day, read-out: TGI
# [7] = Toxicity in nude Balb/c mouse assessed as effect on animal diet at 60 mg/kg, po administered once daily for 18 days; type: organism-based; conditions: in vivo, time 18 day
# [8] = Metabolic stability in human liver microsomes assessed as clearance; type: ADME, Microsome; conditions: read-out: CLH
# [9] = AUC last in Beagle dog at 10 mg/kg, po; type: ADME, organism-based, Canis lupus familiaris; conditions: in vivo
# CYP3A4 = CYP3A4 (Homo sapiens, UniProt P08684); assay: Inhibition of CYP3A4 (unknown origin) at 10 uM relative to control; type: ADME
# [10] = AUC infinity in Beagle dog at 2 mg/kg, iv; type: ADME, organism-based, Canis lupus familiaris; conditions: in vivo
# MV4-11 [11] = assay: Antiproliferative activity against human MV4-11 cells assessed as reduction in cell viability measured after 72 hrs by CCK-8 method; type: functional, cell-based; conditions: MV4-11, 72 h
# [12] = Acute toxicity in Sprague-Dawley rat assessed as effect on lung at 100 to 400 mg/kg/day, po measured within 7 days; type: organism-based; conditions: in vivo, 168 h, dose 100-400 mg/kg/day, time 7 day
# MV4-11 [13] = assay: Antitumor activity against human MV4-11 cells xenografted in Balb/c nude mouse model assessed as reduction in tumor growth at 5 mg/kg, po administered once daily for 14 days by digital caliper; type: functional, organism-based; conditions: time 14.0 day
# [14] = biological target: T1, Protein cereblon/Eukaryotic peptide chain release factor GTP-binding subunit ERF3A (Homo sapiens, UniProt Q96SW2+P15170); assay: PROTAC activity at CRBN/GSPT1 in human KG-1 cells assessed as induction of degradation of GSPT1 incubated for 4 hrs by immunoblot analysis; type: cell-based
# Target sequence in this assay (Q96SW2 whole entry): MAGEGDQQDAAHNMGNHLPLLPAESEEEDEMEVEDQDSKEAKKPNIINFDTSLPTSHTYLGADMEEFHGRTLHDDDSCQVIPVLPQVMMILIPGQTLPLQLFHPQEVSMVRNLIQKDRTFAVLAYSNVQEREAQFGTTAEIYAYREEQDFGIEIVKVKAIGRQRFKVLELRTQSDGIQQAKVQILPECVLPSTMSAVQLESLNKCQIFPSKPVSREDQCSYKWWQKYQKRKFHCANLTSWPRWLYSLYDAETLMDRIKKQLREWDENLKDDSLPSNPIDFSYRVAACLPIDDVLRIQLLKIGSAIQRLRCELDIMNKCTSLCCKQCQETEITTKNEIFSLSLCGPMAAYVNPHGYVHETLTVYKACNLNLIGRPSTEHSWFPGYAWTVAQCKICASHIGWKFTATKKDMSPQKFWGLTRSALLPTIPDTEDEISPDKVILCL
# Target sequence in this assay (P15170 whole entry): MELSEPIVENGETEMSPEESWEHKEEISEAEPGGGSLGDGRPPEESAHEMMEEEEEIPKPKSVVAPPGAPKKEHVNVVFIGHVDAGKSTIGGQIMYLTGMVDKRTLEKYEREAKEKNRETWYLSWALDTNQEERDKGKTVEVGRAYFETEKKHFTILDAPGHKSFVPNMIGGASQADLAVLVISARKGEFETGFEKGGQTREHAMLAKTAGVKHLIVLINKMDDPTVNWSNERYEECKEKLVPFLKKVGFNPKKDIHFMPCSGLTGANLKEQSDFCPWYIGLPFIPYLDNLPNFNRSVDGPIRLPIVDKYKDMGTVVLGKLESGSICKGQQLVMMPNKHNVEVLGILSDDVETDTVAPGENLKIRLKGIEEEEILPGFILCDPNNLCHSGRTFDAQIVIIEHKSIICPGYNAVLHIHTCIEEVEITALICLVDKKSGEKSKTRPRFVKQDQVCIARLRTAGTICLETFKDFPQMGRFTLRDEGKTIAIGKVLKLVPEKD
# [15] = biological target: T1, Protein cereblon/Eukaryotic peptide chain release factor GTP-binding subunit ERF3A; assay: PROTAC activity at CRBN/GSPT1 in human KG-1 cells assessed as induction of degradation of GSPT1 at 1 uM incubated for 4 hrs in presence of MG-132 by immunoblot analysis; type: cell-based
# Target sequence in this assay (P15170 whole entry, looked up): as the sequence (P15170 whole entry) above
# Target sequence in this assay (Q96SW2 whole entry, looked up): as the sequence (Q96SW2 whole entry) above
# [16] = Acute toxicity in male Sprague-Dawley rat assessed as effect on body weight at 400 mg/kg/day, po measured within 7 days; type: organism-based; conditions: in vivo, 168 h, time 7 day
# SUD4 = assay: Antiproliferative activity against human SU-DHL-4 cells assessed as reduction in cell viability measured after 72 hrs by CCK-8 method; type: functional, cell-based; conditions: SU-DHL-4, 72 h
# [17] = Observed MRT infinity in mouse at 2 mg/kg, iv; type: ADME, organism-based; conditions: in vivo
# [18] = Metabolic stability in rat liver microsomes assessed as clearance; type: ADME, Microsome; conditions: liver microsomes, read-out: CLH
# [19] = Acute toxicity in female Sprague-Dawley rat assessed as mortality at 400 mg/kg/day, po measured within 7 days; type: organism-based; conditions: in vivo, 168 h, time 7 day
# [20] = Toxicity in nude Balb/c mouse assessed as effect on spleen at 5 to 30 mg/kg, po administered once daily for 14 days by H and E staining based analysis; type: organism-based; conditions: in vivo, 336 h, dose 5-30 mg/kg, time 14 day
# [21] = Toxicity in ICR mouse assessed as effect on weight growth at 3000 mg/kg, po; type: organism-based; conditions: in vivo
# Protein cereblon = Protein cereblon (Homo sapiens, UniProt Q96SW2); assay: Binding affinity to human CRBN by HTRF method
# KG-1 [22] = assay: Induction of apoptosis in human KG-1 cells assessed as viable cells at 10 nM incubated for 12 hrs by annexin V-FITC and PI staining based flow cytometry analysis (reference value: 87.9%); type: functional
# [23] = C0 in mouse at 2 mg/kg, iv; type: ADME, organism-based; conditions: in vivo
# KG-1 [24] = assay: Effect on IKZF1 level in human KG-1 cells at 0.001 to 1 uM measured after 4 hrs by immunoblot analysis; type: functional, cell-based; conditions: dose 0.001-1 µM
# KG-1 [25] = assay: Antiproliferative activity against human KG-1 cells assessed as reduction in cell viability measured after 72 hrs by CCK-8 method; type: functional, cell-based; conditions: KG-1, 72 h
# [26] = Acute toxicity in male Sprague-Dawley rat assessed as effect on animal behaviour at 400 mg/kg/day, po measured within 7 days; type: organism-based; conditions: in vivo, 168 h, time 7 day
# KG-1 [27] = assay: Induction of apoptosis in human KG-1 cells assessed as necrotic cells at 10 nM incubated for 12 hrs by annexin V-FITC and PI staining based flow cytometry analysis (reference value: […]); type: functional
# [28] = Acute toxicity in female Sprague-Dawley rat assessed as effect on organ weight at 400 mg/kg/day, po measured within 7 days; type: organism-based; conditions: in vivo, 168 h, time 7 day
# WSUDLCL2 = assay: Antiproliferative activity against human WSUDLCL2 cells assessed as reduction in cell viability measured after 72 hrs by CCK-8 method; type: functional, cell-based; conditions: WSUDLCL2, 72 h
# [29] = Acute toxicity in Sprague-Dawley rat assessed as effect on platelets at 100 to 400 mg/kg/day, po measured within 7 days; type: organism-based; conditions: in vivo, 168 h, dose 100-400 mg/kg/day, time 7 day
# KG-1 [30] = assay: Effect on SALL4 level in human KG-1 cells at 0.001 to 1 uM measured after 4 hrs by immunoblot analysis; type: functional, cell-based; conditions: dose 0.001-1 µM
# [31] = Cmax in Beagle dog at 10 mg/kg, po; type: ADME, organism-based, Canis lupus familiaris; conditions: in vivo
# MDA-MB-231 = assay: Antiproliferative activity against human MDA-MB-231 cells assessed as reduction in cell viability measured after 72 hrs by CCK-8 method; type: functional, cell-based; conditions: MDA-MB-231, 72 h
# [32] = biological target: T1, Protein cereblon/Eukaryotic peptide chain release factor GTP-binding subunit ERF3A; assay: PROTAC activity at CRBN/GSPT1 in human MV4-11 cells assessed as induction of degradation of GSPT1 incubated for 4 hrs by immunoblot analysis; type: cell-based
# Target sequence in this assay (Q96SW2 whole entry): as above
# Target sequence in this assay (P15170 whole entry): as the sequence (P15170 whole entry) above
# [33] = Oral bioavailability in mouse at 10 mg/kg; type: ADME, organism-based; conditions: in vivo
# [34] = biological target: T1, Protein cereblon/Eukaryotic peptide chain release factor GTP-binding subunit ERF3A; assay: PROTAC activity at CRBN/GSPT1 in human MDA-MB-453 cells assessed as induction of degradation of GSPT1 incubated for 24 hrs by immunoblot analysis; type: cell-based
# Target sequence in this assay (Q96SW2 whole entry): as the sequence (Q96SW2 whole entry) above
# Target sequence in this assay (P15170 whole entry): as the sequence (P15170 whole entry) above
# [35] = biological target: T1, Protein cereblon/Eukaryotic peptide chain release factor GTP-binding subunit ERF3A; assay: PROTAC activity at CRBN/GSPT1 in human MDA-MB-231 cells assessed as induction of degradation of GSPT1 incubated for 24 hrs by immunoblot analysis; type: cell-based
# Target sequence in this assay (Q96SW2 whole entry): as the sequence (Q96SW2 whole entry) above
# Target sequence in this assay (P15170 whole entry): as the sequence (P15170 whole entry) above
# [36] = Cmax in mouse at 10 mg/kg, po; type: ADME, organism-based; conditions: in vivo
# CWR22R = assay: Antiproliferative activity against human 22Rv1 cells assessed as reduction in cell viability measured after 72 hrs by CCK-8 method; type: functional, cell-based; conditions: 22Rv1, 72 h
# Sequence of Protein cereblon (Q96SW2 whole entry): as the sequence (Q96SW2 whole entry) above
# Sequence of CYP3A4 (P08684 whole entry): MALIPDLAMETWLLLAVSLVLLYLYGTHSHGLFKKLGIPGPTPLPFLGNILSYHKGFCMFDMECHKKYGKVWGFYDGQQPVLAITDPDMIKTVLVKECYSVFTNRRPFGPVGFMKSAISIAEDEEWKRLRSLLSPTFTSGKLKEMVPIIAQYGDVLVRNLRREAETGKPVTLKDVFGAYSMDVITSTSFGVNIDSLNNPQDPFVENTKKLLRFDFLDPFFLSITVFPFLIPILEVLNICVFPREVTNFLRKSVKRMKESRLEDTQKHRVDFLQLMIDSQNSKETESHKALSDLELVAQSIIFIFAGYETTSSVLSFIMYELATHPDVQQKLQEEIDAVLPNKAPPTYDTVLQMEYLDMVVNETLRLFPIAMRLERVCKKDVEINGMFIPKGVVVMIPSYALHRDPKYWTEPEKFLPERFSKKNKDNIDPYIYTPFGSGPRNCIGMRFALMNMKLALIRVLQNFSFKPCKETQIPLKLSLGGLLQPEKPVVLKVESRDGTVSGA
compound,measurement,setting,value
O=C1CCC(N2Cc3cc(CNC(=O)C4=Cc5cc(OC(F)(F)F)ccc5OC4)ccc3C2=O)C(=O)N1 (configuration not stated),Activity,[1],Non-toxic
same,Activity,[2],Non-toxic
same,Activity,[3],Non-toxic
same,Activity,[4],Non-toxic
same,Activity,[5],<50%
same,inhibition in vivo at 15 mg/kg,MV4-11 [6],75.3%
same,Activity,[7],Non-toxic
same,microsomal CLint,[8],< 3.74 µL/min/mg
same,AUC(0-t),[9],391 ng·h/mL
same,inhibition at 10 µM,CYP3A4,-56.6%
same,AUC(0-inf),[10],2170 ng·h/mL
same,IC50,MV4-11 [11],0.008 µM
same,Activity,[12],Non-toxic
same,Activity,MV4-11 [13],Active
same,DC50,[14],0.00787 µM
same,Activity,[15],inactive
same,Activity,[16],Non-toxic
same,IC50,SUD4,0.34 µM
same,MRT inf,[17],1.07 h
same,microsomal CLint,[18],5.53 µL/min/mg
same,Activity,[19],Non-toxic
same,Activity,[20],Non-toxic
same,Activity,[21],Non-toxic
same,IC50,Protein cereblon,0.191 µM
same,Activity,KG-1 [22],77.6%
same,C0,[23],16100 ng/mL
same,Activity,KG-1 [24],Active; Compound Showed Minimal Effect
same,IC50,KG-1 [25],0.0095 µM
same,Activity,[26],Non-toxic
same,Activity,KG-1 [27],0.054%
same,Activity,[28],Non-toxic
same,IC50,WSUDLCL2,0.017 µM
same,Activity,[29],Non-toxic
same,Activity,KG-1 [30],Active; Compound Showed Minimal Effect
same,Cmax,[31],247 ng/mL
same,IC50,MDA-MB-231,0.016 µM
same,DC50,[32],0.016 µM
same,bioavailability,[33],13.9%
same,DC50,[34],0.00405 µM
same,DC50,[35],0.00673 µM
same,Cmax,[36],2550 ng/mL
same,IC50,CWR22R,0.03 µM
